Molecular target: T1, mouse Tas2r108 (Mus musculus, UniProt Q9JKT3)
T1 construct: expressed in transfected cells; host or cells: HEK293T-Gα16gust44
T1 sequence (Q9JKT3 1-297): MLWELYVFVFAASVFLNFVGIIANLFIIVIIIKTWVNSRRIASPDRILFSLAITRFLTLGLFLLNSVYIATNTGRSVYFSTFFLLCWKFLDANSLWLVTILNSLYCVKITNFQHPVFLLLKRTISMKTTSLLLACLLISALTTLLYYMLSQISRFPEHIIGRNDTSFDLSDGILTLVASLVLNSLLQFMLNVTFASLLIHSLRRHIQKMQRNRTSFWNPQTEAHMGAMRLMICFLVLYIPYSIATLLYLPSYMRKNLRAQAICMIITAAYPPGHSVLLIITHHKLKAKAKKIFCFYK
Assay: Calcium imaging assay (FLIPR), HEK293T-Gα16gust44 cells transfected with mouse Tas2r108
Assay type: cell-based
Procedure: This set of bile acids was chosen because of their commercial availability in high purities, their diversity within the class of bile acids and their previous detection and quantitation in human blood. Stock solutions were prepared in DMSO.
As basal growth medium for the HEK293T-Gα16gust44 cell line[17],[59] served Dulbecco’s modified eagle medium (DMEM) (Thermo Fisher Scientific, Darmstadt, Germany) supplemented with 10 % fetal bovine serum (Sigma-Aldrich, Steinheim, Germany), 2 mM L-glutamine (Sigma-Aldrich, Steinheim, Germany), 100 units/ml penicillin (Sigma Aldrich, Steinheim, Germany) and 100 µg/ml streptomycin (Sigma Aldrich, Steinheim, Germany). Growth conditions were 37 °C, 5 % CO2 and saturated air-humidity[60].
HEK293T-Gα16gust44 cells were seeded on poly-D-lysine (10 µg/ml) coated 96-well plates to reach a confluence of 40-60 % the next day. For transient transfection 150 ng of plasmid DNA containing the receptor of interest and 0.3 µl lipofectamine 2000 (Thermo Fisher Scientific, Darmstadt, Germany) per well were used and transfection took place according to the manual of lipofectamine 2000. […] The empty vector DNA (mock) was transfected as negative control[14],[41].
Cells were loaded using the calcium-sensitive fluorescent dye Fluo-4-AM (Abcam, Cambridge, Great Britain) in the presence of 2.5 mM probenecid (Sigma-Aldrich, Steinheim, Germany) the day after transfection[13],[41]. 1 h after loading, cells were washed with C1 buffer using a BioTek Cell Washer, incubated in the dark for half an hour and washed again. For automated agonist application and measurement of fluorescence changes, a FLIPR^TETRA device (Molecular Devices, San José, United States) was used. Viability of cells was tested by application of 100 nM Somatostatin 14 (Bachem, Bubendorf, Switzerland)[42].
Measured data were negative control corrected by subtracting the signal of the mock-transfected cells and exported to Microsoft Excel using the FLIPR software ScreenWorks 4.2. In Microsoft Excel software, standardization of maximum fluorescence intensities to the basal fluorescence and normalization to the buffer-only control was done to calculate the relative fluorescence changes (ΔF/F).
Initial screening experiments performed in duplicate wells were confirmed by at least one replication and representative traces were selected for display. All dose-response relationships were determined by three independent experiments (biological replicates) performed in duplicates (technical replicates). Threshold concentrations, defined as lowest substance concentrations leading to statistically significant elevated fluorescence changes in receptor-transfected cells compared with empty vector-transfected cells, were determined using SigmaPlot with Student’s t-test to evaluate statistical significance (p < 0.01).

C[C@H](CCC(=O)O)[C@H]1CC[C@H]2[C@@H]3[C@H](O)C[C@@H]4C[C@H](O)CC[C@]4(C)[C@H]3C[C@H](O)[C@]12C [Cholic Acid, cholic acid]
RLU (Time 0 s): 0 RLU | RLU (Time 2 s): 6.931 RLU | RLU (Time 4 s): 8.7879 RLU | RLU (Time 6 s): 7.879 RLU | RLU (Time 8 s): 1.863 RLU | RLU (Time 12 s): 5.906 RLU | RLU (Time 14 s): 3.861 RLU | RLU (Time 16 s): 1.935 RLU | RLU (Time 18 s): -12.1137 RLU | RLU (Time 137.562 s): 234.064 RLU | RLU (Time 143.562 s): 197.377 RLU | RLU (Time 149.562 s): 197.423 RLU | RLU (Time 155.562 s): 210.935 RLU | RLU (Time 161.562 s): 218.751 RLU | RLU (Time 167.562 s): 184.375 RLU | RLU (Time 173.562 s): 173.738 RLU | RLU (Time 179.562 s): 175.807 RLU | RLU (Time 185.562 s): 185.91 RLU | RLU (Time 191.562 s): 162.947 RLU | RLU (Time 197.562 s): 167.018 RLU | RLU (Time 203.562 s): 164.056 RLU | RLU (Time 209.562 s): 161.279 RLU | RLU (Time 215.562 s): 154.776 RLU | RLU (Time 221.562 s): 158.451 RLU | RLU (Time 227.562 s): 139.492 RLU | RLU (Time 233.562 s): 152.204 RLU | RLU (Time 239.562 s): 73.7327 RLU | RLU (Time 245.562 s): 142.097 RLU | RLU (Time 293.562 s): 160.558 RLU | RLU (Time 299.562 s): 159.088 RLU | RLU (Time 305.562 s): 175.817 RLU | RLU (Time 311.562 s): 159.088 RLU | RLU (Time 317.562 s): 162.782 RLU | RLU (Time 323.562 s): 182.257 RLU | RLU (Time 329.562 s): 162.985 RLU | RLU (Time 335.562 s): 195.196 RLU | RLU (Time 341.562 s): 184.414 RLU | RLU (Time 347.562 s): 175.395 RLU | RLU (Time 353.562 s): 161.041 RLU | RLU (Time 359.562 s): 176.226 RLU | Activation threshold concentration Tas2r108 (p < 0.01 vs empty vector): 100 µM | RLU (time 18.797 s): 17.792 RLU | RLU (time 20.797 s): -23.002 RLU | RLU (time 22.797 s): -57.7927 RLU | RLU (time 24.797 s): -48.9168 RLU | RLU (time 26.797 s): -17.0044 RLU | RLU (time 28.797 s): 22.9392 RLU | RLU (time 30.797 s): 32.9758 RLU | RLU (time 32.797 s): 53.0645 RLU | RLU (time 34.797 s): 83.8222 RLU | RLU (time 36.797 s): 93.8063 RLU | RLU (time 38.797 s): 138.967 RLU | RLU (time 40.797 s): 140.665 RLU | RLU (time 42.797 s): 165.846 RLU | RLU (time 44.797 s): 192.868 RLU | RLU (time 46.797 s): 190.046 RLU | RLU (time 48.797 s): 199.412 RLU | RLU (time 50.797 s): 213.089 RLU | RLU (time 52.797 s): 215.082 RLU | RLU (time 54.797 s): 250.612 RLU | RLU (time 56.797 s): 250.502 RLU | RLU (time 58.797 s): 257.511 RLU | RLU (time 60.797 s): 256.774 RLU | RLU (time 62.797 s): 238.682 RLU | RLU (time 64.797 s): 249.009 RLU | RLU (time 66.797 s): 305.929 RLU | RLU (time 68.797 s): 280.306 RLU | RLU (time 70.797 s): 276.637 RLU | RLU (time 72.797 s): 284.565 RLU | RLU (time 74.797 s): 263.421 RLU | RLU (time 76.797 s): 265 RLU | RLU (time 78.797 s): 262.578 RLU | RLU (time 80.797 s): 288.384 RLU | RLU (time 82.797 s): 280.368 RLU | RLU (time 84.797 s): 274.722 RLU | RLU (time 86.797 s): 270.305 RLU | RLU (time 88.797 s): 275.266 RLU | RLU (time 90.797 s): 279.283 RLU | RLU (time 92.797 s): 261.98 RLU | RLU (time 94.797 s): 257.248 RLU | RLU (time 96.797 s): 285.43 RLU | RLU (time 98.797 s): 259.515 RLU | RLU (time 100.797 s): 270.732 RLU | RLU (time 102.797 s): 264.325 RLU | RLU (time 104.797 s): 245.741 RLU | RLU (time 106.797 s): 235.309 RLU | RLU (time 108.797 s): 255.707 RLU | RLU (time 110.797 s): 240.509 RLU | RLU (time 112.797 s): 233.706 RLU | RLU (time 114.797 s): 230.518 RLU | RLU (time 116.797 s): 242.495 RLU | RLU (time 118.797 s): 239.456 RLU | RLU (time 120.797 s): 255.452 RLU | RLU (time 122.797 s): 242.932 RLU | RLU (time 124.797 s): 218.082 RLU | RLU (time 126.797 s): 235.026 RLU | RLU (time 128.797 s): 232.943 RLU | RLU (time 130.797 s): 235.505 RLU | RLU (time 132.797 s): 229.818 RLU | RLU (time 134.797 s): 212.202 RLU | RLU (time 136.797 s): 197.953 RLU

From paper PMC10247784, “Physiological activation of human and mouse bitter taste receptors by bile acids” (Communications Biology, 2023)
